In patent US20250367229A1, “Treatment of Immune-Related Disorders, Kidney Disorders, Liver Disorders, Hemolytic Disorders, and Oxidative Stress-Associated Disorders Using NRH, NARH and Reduced Derivatives Thereof” (MitoPower LLC, priority 2021, published 2025):

Key:
[1] = system: red blood cells (RBCs); test: H2O2-induced hemolysis in vitro; format: cell-based; conditions: 2000, 200 and 20 μM, pre-incubation 1 hr at 37° C., then H2O2 4 hr
Protocol: Individual test compounds were dissolved in 0.9% normal saline to prepare 0.3 M stock solutions. A 0.3 M stock solution was added to a 20% suspension of washed red blood cells (RBCs) in saline to obtain final concentrations of 2000 μM, 200 μM and 20 μM of the compound. The RBC suspensions were incubated with the test compound at 37° C. for 1 hr prior to testing. A 2.5% H2O2 solution was prepared fresh by dilution with normal saline and chilled at 2-8° C. before use. Each RBC suspension containing the test compound was split into tubes A and B. 250 μL of the chilled H2O2 solution was added to 250 μL of RBC suspension in each tube while maintaining the tubes in an ice bath. The tubes were incubated at 37° C. for 4 hr, and then 4.5 mL of saline or de-ionized water was added to tube A or tube B, respectively. After the tubes were incubated for 10 min, the mixture in the tubes was centrifuged at 1800 g, and then absorbance was measured in the supernatant at 540 nm. The percentage of hemolysis was calculated as: […]

[2] = system: CD4^+ T cells; test: Ex vivo polyclonal immune activation model: cytokine production in CD4+ T cells; format: cell-based, human; conditions: stimulated with anti-CD3 and anti-CD28 antibodies; data not shown
Protocol: (§1) Heparinized venous blood was collected from healthy human adult donors. Peripheral blood mononuclear cells (PBMCs) were isolated by Ficoll-Hypaque density-gradient centrifugation. PBMCs (1.0×10^6) were seeded in round-bottom, 96-well plates in 200 μL of medium, unstimulated or stimulated with an anti-CD3 antibody ([…], clone-HIT3a, Biolegend) plus an anti-CD28 antibody (1 μg/mL, clone-CD28.2, Biolegend) to induce T-cell activation, and incubated in cell-culture medium. The PBMCs were unstimulated or stimulated with anti-CD3 and anti-CD28 antibodies to induce T-cell activation, in the absence or presence of 250 μM NRH. After 18 hours of incubation, lymphocytes were analyzed for intracellular levels of IFN-γ, TNF-α and IL-2 by flow cytometry. Intracellular cytokine production was stopped by treating the cells with Golgi stop after 1 hr of treatment.

[3] = Distribution of intraperitoneally injected NRH to whole blood, kidney and liver (LCMS/MS); format: in vivo, Wistar Han rat; conditions: single intraperitoneal injection, 500 mg/kg, after 4 hr
Protocol: Freshly weighed NRH (100 mg) was dissolved in 500 μL sterile IP water. The NRH solution was intraperitoneally injected into a healthy, male Wistar Han rat (200 g) at a single dose of 500 mg/kg. 500 μL of sterile IP water was intraperitoneally injected into another healthy, male Wistar Han rat (200 g) as a control.
The animals were euthanized by cervical dislocation under anesthesia after 4 hr. Whole blood was collected in K2EDTA vacutainer tubes by cardiac puncture using a 2 mL syringe. The liver and kidney were harvested subsequently by dissection. The tissues were placed in a petridish, rinsed with ice-cold saline, and then weighed. 72 mg of liver of the treated animal and 74.3 mg of liver of the untreated animal were homogenized, and 71.6 mg of kidney of the treated animal and 70.7 mg of kidney of the untreated animal were homogenized. Homogenization of the tissues was carried out separately in 3 mL of ice-cold methanol (about 20 mg/mL of tissue in methanol). The homogenate was snap-frozen in liquid nitrogen and maintained at −80° C. for analysis. The blood samples were maintained at 2-8° C. for analysis.
250 μL of whole blood from the K2EDTA tubes was added to a tube containing 50 μL of 500 ng/ml of tolbutamide as the internal standard. 600 μL of ice-cold HPLC-grade methanol was added to this mixture for extraction of nicotinamide adenine dinucleotide (NAD^+) and NRH. The resulting mixture was mixed well and centrifuged at 12500 rpm for 10 min. The supernatant was measured for NAD^+ and NRH by LCMS/MS. For the liver and kidney tissues, 250 μL of the tissue homogenate was processed in the same manner.

[4] = system: CD8^+ T cells; test: Ex vivo polyclonal immune activation model: intracellular cytokine production in CD8+ T cells (flow cytometry); format: cell-based, human; conditions: 250 μM, 18 hours, PBMCs stimulated with anti-CD3 and anti-CD28 antibodies; p<0.05 Mann-Whitney U test
Protocol: as §1

[5] = system: CD8^+ T cells; test: Cell death including apoptosis (annexin V, flow cytometry) of CD8+ T cells with depolarized mitochondria; format: cell-based, human; conditions: 250 μM, 24 hr, unstimulated or stimulated with anti-CD3 and anti-CD28 antibodies
Protocol: PBMCs (10^6 cells per test group) obtained from healthy human adult donors were unstimulated or stimulated with anti-CD3 and anti-CD28 antibodies to induce T-cell activation, in the absence or presence of 250 μM of NRH or NRH-triacetate (NRHTA). Measurements were made at 5, 15 and 24 hr after treatment.
After the indicated time of incubation, the PBMCs were stained with anti-CD3, anti-CD4 and anti-CD8 antibodies (Biolegend), JC-1 (1 μM, Thermo Fisher) and annexin V (Thermo Fisher) prior to analysis by flow cytometry. Annexin V binds to cell-surface phosphatidylserine, which is a marker for different forms of cell death including apoptosis and necrosis. The stained cells were re-suspended in phosphate-buffered saline (PBS) and acquired in a Cytek Aurora flow cytometer using a FlowJo software (v10) for analysis. About 200,000-300,000 cells were acquired in the flow cytometer for analysis. Standard procedures for spectral compensation were performed to obtain cell populations. Lymphocytes identified by forward and side scatter were gated to obtain CD3^+/CD4^+ and CD3^+/CD8^+ T-cell populations. Those T-cell populations were gated to identify the red and green signals for JC-1 aggregate and monomer, respectively, and annexin V. The percentage of cells staining green by JC-1 monomer was used to determine the percentage of cells with depolarized mitochondria. […]

Compound: NC(=O)C1=CN([C@@H]2O[C@H](CO)[C@@H](O)[C@H]2O)C=CC1 [NRH, N-(β-D-ribofuranosyl)dihydronicotinamide]
- H2O2-induced hemolysis [1]: reduced H2O2-induced hemolysis
- production of pro-inflammatory cytokines (e.g., TNF-α, IL-2, IFN-γ) by CD4+ T cells [2]: reduced production of pro-inflammatory cytokines
- concentration of NRH in the kidney (area ratio NRH/IS) versus vehicle [3]: increased concentrations
- concentration of NRH in the liver (area ratio NRH/IS) versus vehicle [3]: increased concentrations
- concentration of NRH in whole blood (area ratio NRH/IS) versus vehicle [3]: increased concentrations
- production of IFN-γ in activated CD8+ T cells [4]: significantly reduced
- production of IL-2 in activated CD8+ T cells [4]: significantly reduced
- production of TNF-α in activated CD8+ T cells [4]: significantly reduced
- cell death including apoptosis of CD8+ T cells with depolarized mitochondria [5]: reduced cell death
